Read-outs that look alike come from different tables or passages of the source.
System: PANC-1 cells
Test: cell viability assay in PANC-1 cells (compound alone, + 100 ng/ml TNFa, + 300 ng/ml TRAIL)
Format: cell-based
[1] = Homo sapiens, PANC-1, compound alone, Tables 6-10, read-out: IC50 (μM) in cell viability assay in PANC-1 cells: Compound alone
[2] = with 100 ng/ml TNFa, Tables 6-10, read-out: IC50 (μM) in cell viability assay in PANC-1 cells: Compound + 100 ng/ml TNFa
[3] = with 300 ng/ml TRAIL, Tables 6-10, read-out: IC50 (μM) in cell viability assay in PANC-1 cells: Compound + 300 ng/ml TRAIL
[4] = Homo sapiens, PANC-1, compound alone, Tables 15-18, read-out: IC50 (uM) in cell viability assay in PANC-1 cells: Cmpnd alone
[5] = with 100 ng/ml TNFa, Tables 15-18, read-out: IC50 (uM) in cell viability assay in PANC-1 cells: Cmpnd + 100 ng/ml TNFa
[6] = with 300 ng/ml TRAIL, Tables 15-18, read-out: IC50 (uM) in cell viability assay in PANC-1 cells: Cmpnd + 300 ng/ml TRAIL
[7] = Homo sapiens, PANC-1 cells, compound alone, read-out: IC50 (uM) in cell viability assay in PANC-1 cells, Cmpnd alone
[8] = PANC-1 cells, + 100 ng/ml TNFa, read-out: IC50 (uM) in cell viability assay in PANC-1 cells, Cmpnd + 100 ng/ml TNFa
[9] = PANC-1 cells, + 300 ng/ml TRAIL, read-out: IC50 (uM) in cell viability assay in PANC-1 cells, Cmpnd + 300 ng/ml TRAIL

| IC50 [1] [µM] | IC50 [2] [µM] | IC50 [3] [µM] | SMILES | also measured |
| --- | --- | --- | --- | --- |
| > 1 | > 1 | > 1 | CN[C@@H](C)C(=O)N[C@H](C(=O)N1C[C@@H](NC(=O)c2cccc(C(=O)N[C@H]3C[C@@H](C(=O)NCCc4ccc(O)c(O)c4)N(C(=O)[C@@H](NC(=O)[C@H](C)NC)C(C)(C)C)C3)c2)C[C@H]1C(=O)NCCc1ccc(O)c(O)c1)C(C)(C)C [Compound 9] |  |
| > 1 | 0.375 | 0.293 | CN[C@@H](C)C(=O)N[C@H](C(=O)N1C[C@@H](NC(=O)c2cccc(C(=O)N[C@H]3C[C@@H](C(=O)N[C@H](C)c4ccccn4)N(C(=O)[C@@H](NC(=O)[C@H](C)NC)C(C)(C)C)C3)c2)C[C@H]1C(=O)N[C@H](C)c1ccccn1)C(C)(C)C [Compound 25] |  |
| > 1 | 0.044 | 0.063 | CN[C@@H](C)C(=O)N[C@H](C(=O)N[C@@H](CCNC(=O)CC[C@H](NC(=O)[C@@H](NC(=O)[C@H](C)NC)C(C)(C)C)C(=O)N[C@@H]1CCCc2ccccc21)C(=O)N[C@@H]1CCCc2ccccc21)C(C)(C)C [Compound 171] |  |
| > 1 | 0.62 | 0.6 | CN[C@@H](C)C(=O)N[C@H]1CCN(C(=O)c2ccc(C(=O)N[C@H]3C[C@@H](C(=O)N[C@@H]4CCCc5ccccc54)N(C(=O)[C@@H](NC(=O)[C@H](C)NC)C(C)(C)C)C3)cc2)C1 [Compound 187] |  |
| > 1 | 0.236 | 0.122 | CCC1(NC(=O)[C@@H]2C[C@H](NC(=O)c3cccc(C(=O)N[C@H]4C[C@@H](C(=O)NC5(CC)CCCc6ccccc65)N(C(=O)[C@@H](NC(=O)[C@H](C)NC)C(C)(C)C)C4)c3)CN2C(=O)[C@@H](NC(=O)[C@H](C)NC)C(C)(C)C)CCCc2ccccc21 (some centres unmarked) [Compound 50] |  |
| > 1 | 0.536 | 0.564 | CN[C@@H](C)C(=O)N[C@H](C(=O)N1CCC[C@H]1CN1C(=O)OC[C@@H]1Cc1ccccc1)[C@@H](C)OCC#CC#CCO[C@H](C)[C@H](NC(=O)[C@H](C)NC)C(=O)N1CCC[C@H]1CN1C(=O)OC[C@@H]1Cc1ccccc1 [Compound 82] |  |
| > 1 | > 1 | > 1 | CN[C@@H](C)C(=O)N[C@H](C(=O)N1CCC[C@H]1CN1C(=O)OC[C@@H]1Cc1ccccc1)[C@@H](C)OCCCCCCO[C@H](C)[C@H](NC(=O)[C@H](C)NC)C(=O)N1CCC[C@H]1CN1C(=O)OC[C@@H]1Cc1ccccc1 [Compound 84] |  |
| > 1 | 0.057 | 0.052 | CN[C@@H](C)C(=O)N[C@@H](CCCCCC[C@H](NC(=O)[C@H](C)NC)C(=O)N1C[C@@H](F)C[C@H]1C(=O)N[C@@H]1CCCc2ccccc21)C(=O)N1C[C@@H](F)C[C@H]1C(=O)N[C@@H]1CCCc2ccccc21 [Compound 100] |  |
| > 1 | 0.263 | 0.398 | CN[C@@H](C)C(=O)N[C@@H](CCCCNC(=O)c1cccc(C(=O)NCCCC[C@H](NC(=O)[C@H](C)NC)C(=O)N2CCC[C@H]2Cn2nnnc2Sc2ccccc2)c1)C(=O)N1CCC[C@H]1Cn1nnnc1Sc1ccccc1 [Compound 207] |  |
| > 1 | 0.383 | 0.217 | CN[C@@H](C)C(=O)N[C@H](C(=O)N1C[C@@H](NC(=O)c2cccc(C(=O)N[C@H]3C[C@@H](C(=O)NCc4cccc5[nH]ccc45)N(C(=O)[C@@H](NC(=O)[C@H](C)NC)C(C)(C)C)C3)c2)C[C@H]1C(=O)NCc1cccc2[nH]ccc12)C(C)(C)C [Compound 7] |  |

Second part, the compound before the results:

| SMILES | IC50 [1] [µM] | IC50 [2] [µM] | IC50 [3] [µM] | also measured |
| --- | --- | --- | --- | --- |
| CN[C@@H](C)C(=O)N[C@@H](CCCCCC[C@H](NC(=O)[C@H](C)NC)C(=O)N1CCC[C@H]1c1ncc(C(=O)NC(c2ccccc2)c2ccccc2)o1)C(=O)N1CCC[C@H]1c1ncc(C(=O)NC(c2ccccc2)c2ccccc2)o1 [Compound 23] | > 1 | > 1 | > 1 |  |
| CN[C@@H](C)C(=O)N[C@H](C(=O)N1C[C@@H](NC(=O)c2cccc(C(=O)N[C@H]3C[C@@H](C(=O)N[C@H](C)Cc4ccccc4)N(C(=O)[C@@H](NC(=O)[C@H](C)NC)C(C)(C)C)C3)c2)C[C@H]1C(=O)NC(C)Cc1ccccc1)C(C)(C)C (some centres unmarked) [Compound 10] | > 1 | 0.065 | 0.085 |  |
| CN[C@@H](C)C(=O)N[C@H](C(=O)N1CCC[C@H]1c1cc(C(=O)OC)c(-c2cn(CC#CC#CCn3cc(-c4oc([C@@H]5CCCN5C(=O)[C@@H](NC(=O)[C@H](C)NC)C(C)(C)C)cc4C(=O)OC)c4ccccc43)c3ccccc23)o1)C(C)(C)C [Compound P4-25] |  |  |  | IC50 [4]: > 1 µM; IC50 [5]: 0.0342 µM; IC50 [6]: 0.0408 µM |
| CN[C@@H](C)C(=O)N[C@H](C(=O)N1C[C@@H](NC(=O)c2cccc(C(=O)N[C@H]3C[C@@H](C(=O)NCCc4ccc(O)cc4)N(C(=O)[C@@H](NC(=O)[C@H](C)NC)C(C)(C)C)C3)c2)C[C@H]1C(=O)NCCc1ccc(O)cc1)C(C)(C)C [Compound 3] | > 1 | 0.5 | 0.42 |  |
| CN[C@@H](C)C(=O)NC(CCC(=O)Nc1ccc(CCc2ccc(NC(=O)CCC(NC(=O)[C@H](C)NC)C(=O)N3CCC[C@H]3C(=O)N[C@@H]3CCCc4ccccc43)cc2)cc1)C(=O)N1CCC[C@H]1C(=O)NC1CCCc2ccccc21 (some centres unmarked) [Compound P2-45] |  |  |  | IC50 [4]: > 1 µM; IC50 [5]: 0.002 µM; IC50 [6]: 0.004 µM |
| CN[C@@H](C)C(=O)N[C@H](C(=O)N1C[C@@H](NC(=O)c2cc(C(=O)N[C@H]3C[C@@H](C(=O)N[C@H](C)c4ccccc4)N(C(=O)[C@@H](NC(=O)[C@H](C)NC)[C@@H](C)OC)C3)[nH]n2)C[C@H]1C(=O)N[C@H](C)c1ccccc1)[C@@H](C)OC [Compound P3-110] |  |  |  | IC50 [7]: > 1 µM; IC50 [8]: 0.056 µM; IC50 [9]: 0.073 µM |
| CN[C@@H](C)C(=O)N[C@H](C(=O)N1C[C@@H](NC(=O)c2cccc(C(=O)N[C@H]3C[C@@H](C(=O)N[C@@H]4CCCc5c(O)cccc54)N(C(=O)[C@@H](NC(=O)[C@H](C)NC)C(C)(C)C)C3)c2)C[C@H]1C(=O)N[C@@H]1CCCc2c(O)cccc21)C(C)(C)C (single isomer, unassigned) [Compound 60] | > 1 | 0.044 | 0.049 |  |
| CN[C@@H](C)C(=O)N[C@@H](CCNC(=O)c1ccc(-c2ccc(C(=O)NCC[C@H](NC(=O)[C@H](C)NC)C(=O)N3CCC[C@H]3C(=O)N[C@@H]3CCCc4ccccc43)cc2)cc1)C(=O)N1CCC[C@H]1C(=O)N[C@@H]1CCCc2ccccc21 [Compound P2-50] |  |  |  | IC50 [4]: > 1 µM; IC50 [5]: 0.067 µM; IC50 [6]: 0.019 µM |
| CN[C@@H](C)C(=O)N[C@@H](CCNC(=O)NCC[C@H](NC(=O)[C@H](C)NC)C(=O)N1CCC[C@H]1C(=O)N[C@@H]1CCCc2ccccc21)C(=O)N1CCC[C@H]1C(=O)N[C@@H]1CCCc2ccccc21 [Compound P2-39] |  |  |  | IC50 [4]: > 1 µM; IC50 [5]: 0.349 µM; IC50 [6]: 0.225 µM |
| CN[C@@H](C)C(=O)N[C@H](C(=O)N1C[C@@H](NC(=O)C2CCCC(C(=O)N[C@H]3C[C@@H](C(=O)N[C@H](C)c4ccccc4)N(C(=O)[C@@H](NC(=O)[C@H](C)NC)C(C)(C)C)C3)C2)C[C@H]1C(=O)N[C@H](C)c1ccccc1)C(C)(C)C (some centres unmarked) [Compound P3-97] |  |  |  | IC50 [8]: 0.059 µM; IC50 [9]: 0.065 µM; IC50 (PANC-1 cells, compound alone, read-out: IC50 (uM) in cell viability assay in PANC-1 cells, Cmpnd alone): > 1 µM |
| CN[C@@H](C)C(=O)N[C@H](C(=O)N[C@@H](CCNC(=O)c1cc(N)cc(C(=O)N[C@H]2C[C@@H](C(=O)N[C@@H]3CCCc4ccccc43)N(C(=O)[C@@H](NC(=O)[C@H](C)NC)C(C)(C)C)C2)c1)C(=O)N[C@H](C)C(C)C)C(C)C [Compound 180] | > 1 | 0.124 | 0.201 |  |
| CN[C@@H](C)C(=O)N[C@H](C(=O)N1CCCC1C(=O)N[C@H](COCC#CC#CCOC[C@@H](NC(=O)[C@H](C)NC(=O)[C@H](NC(=O)[C@@H](C)NC)C1CCCCC1)C(C)C)C1CCCCC1)C(C)(C)C (some centres unmarked) [Compound 209] |  | 0.0007 | 0.0007 |  |
| CN[C@@H](C)C(=O)N[C@H](C(=O)N1C[C@@H](NC(=O)CCCCCCCCC(=O)N[C@H]2C[C@@H](C(=O)N[C@H](C)c3ccccc3)N(C(=O)[C@@H](NC(=O)[C@H](C)NC)C(C)(C)C)C2)C[C@H]1C(=O)N[C@H](C)c1ccccc1)C(C)(C)C [Compound P3-93] |  |  |  | IC50 [7]: > 1 µM; IC50 [8]: 0.012 µM; IC50 [9]: 0.043 µM |
| CN[C@@H](C)C(=O)N[C@H](C(=O)N[C@@H](CCNC(=O)c1cc(N)cc(C(=O)N[C@H]2C[C@@H](C(=O)N[C@@H]3CCCc4ccccc43)N(C(=O)[C@@H](NC(=O)[C@H](C)NC)C(C)(C)C)C2)c1)C(=O)N[C@@H]1CCCc2ccccc21)C(C)C [Compound 183] | > 1 | 0.044 | 0.061 |  |
| CN[C@@H](C)C(=O)N[C@H](C(=O)N1CCC[C@H]1C(=O)N[C@H](C)c1ccccc1)[C@H](C)n1cc(CCCc2cn([C@@H](C)[C@H](NC(=O)[C@H](C)NC)C(=O)N3CCC[C@H]3C(=O)N[C@H](C)c3ccccc3)nn2)nn1 [Compound 115] | > 1 | 0.057 | 0.063 |  |
| CN[C@@H](C)C(=O)N[C@@H](CCC(=O)Nc1ccc2c(c1)Cc1cc(NC(=O)CC[C@H](NC(=O)[C@H](C)NC)C(=O)N3CCC[C@H]3C(=O)N[C@@H]3CCCc4ccccc43)ccc1-2)C(=O)N1CCC[C@H]1C(=O)N[C@@H]1CCCc2ccccc21 [Compound 117] | > 1 | 0.02 | 0.025 |  |

Source: patent US20130344026A1, “Dimeric Smac Mimetics” (priority 2009, published 2013)
